Data reported in patent publication US20130252983A1, “ACTIVATING PHOSPHORYLATION SITE ON GLUTAMINASE C” (CORNELL UNIVERSITY, priority 2010, published 2013).

Key:
[1] = tested on: NIH 3T3 cells stably expressing Cdc42(F28L) and transiently expressing mouse GAC; assay: Focus formation of Cdc42(F28L) cells transiently expressing GAC; assay type: cell-based
From the text: FIGS. 4A-E illustrate the role of glutaminase C activity in cellular transformation. […] Data represent the average of 3 experiments (±s.d.). […] Data represent the average of 3 experiments (±s.d.). […] 100% represents the activity measured in untreated Dbl-transformed cells. The data represent the average of 2 experiments. […] 100% represents the activity measured in untreated SKBR3 cells. The data represent the average of 2 experiments. […] Data represent the average of 3 experiments (±s.d.).

[2] = tested on: NIH 3T3 cells stably expressing Cdc42(F28L), Rac(F28L), RhoC(F30L); assay: Growth to high density or in low serum of cells expressing activated Rho GTPase mutants; assay type: cell-based, mouse; conditions: 10 μM
Protocol: FIGS. 2A-G illustrate effects of 968 on the transforming activity of constitutively active Rho GTPases and human breast cancer cells. […] Cells were scored after 14 days and plotted as the percentage of the total number of colonies greater than 50 μm in diameter. Data represent the average of 3 experiments (±s.d.). […] Data represent the average of 3 experiments (±s.d.). […] Data represent the average of 3 experiments (±s.d.). […] After 24 hours at 37° C., the migratory cells were fixed, stained with GIEMSA, and counted. Data represent the average of 3 experiments (±s.d.). […] Data represent the average of 3 experiments (±s.d.). […] Data represent the average of 3 experiments (±s.d.). […] Data represent the average of 3 experiments (±s.d.).

[3] = tested on: GACΔC (C-terminal truncation mutant of GAC); assay: Glutaminase activity of immunoprecipitated GACΔC from treated Dbl-transformed cells; assay type: cell-based, mouse; conditions: 10 μM, 48 hours
[4] = biological target: T1, GAC phosphorylation (Mus musculus, UniProt D3Z7P3); assay: 2-D gel analysis of V5-GAC phosphorylation states from treated Dbl cells; assay type: cell-based; conditions: 968 10 μM, 48 hours
T1 construct: expressed in transfected cells; host or cells: NIH 3T3 cells (stably expressing Dbl, or parental), transient transfection
T1 sequence (D3Z7P3 55-603 isoform D3Z7P3-2 limits assumed): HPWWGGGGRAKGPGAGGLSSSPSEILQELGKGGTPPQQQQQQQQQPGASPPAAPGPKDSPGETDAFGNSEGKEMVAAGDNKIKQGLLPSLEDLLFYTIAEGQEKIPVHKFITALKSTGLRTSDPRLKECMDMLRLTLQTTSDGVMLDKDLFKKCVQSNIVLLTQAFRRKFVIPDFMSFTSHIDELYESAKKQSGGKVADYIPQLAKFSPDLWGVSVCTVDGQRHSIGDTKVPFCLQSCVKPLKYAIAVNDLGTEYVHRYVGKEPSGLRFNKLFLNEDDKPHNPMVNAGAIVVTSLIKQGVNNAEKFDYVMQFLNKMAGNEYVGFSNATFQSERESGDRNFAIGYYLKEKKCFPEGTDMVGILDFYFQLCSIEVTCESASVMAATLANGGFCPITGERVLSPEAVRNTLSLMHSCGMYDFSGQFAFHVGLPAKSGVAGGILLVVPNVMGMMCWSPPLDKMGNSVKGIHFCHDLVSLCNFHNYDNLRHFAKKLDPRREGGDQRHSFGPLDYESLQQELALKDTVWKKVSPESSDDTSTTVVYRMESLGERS
Protocol: NIH 3T3 cells stably expressing the Dbl oncogene, were transiently transfected with DNA encoding a VS-tagged GAC, and then one sample was treated with 968 (10 μM) for 48 hours. The cells were then harvested and the ectopically expressed GAC was isolated by immunoprecipitation via the V5 tag. The samples were then subjected to 2-D gel analysis to separate the V5-GAC by charge and size, and the V5-tagged GAC was visualized by Western blotting using an anti-V5 antibody.
GAC runs distinctly on a 2D gel depending whether it is expressed in normal (untransformed) NIH 3T3 cells or in NIH 3T3 cells which are transformed by the Dbl oncogene. Specifically, there is one major species of GAC present in NIH 3T3 cells whereas in Dbl cells, two additional species of GAC appear which migrate with a more negative charge but at the same molecular mass as the original species (FIG. 21, first and second panels). […] Additionally, it has been shown that small molecules of the 968 family which are able to inhibit GAC in vivo do so by blocking the ability of GAC to become phosphorylated. Thus, it was of great interest to identify the amino acid(s) on GAC whose phosphorylation is causal in the activation of this enzyme.

[5] = tested on: normal NIH 3T3 cells; assay: Growth and morphology of control NIH 3T3 cells; assay type: cell-based, mouse; conditions: 10% calf serum; 10 μM (growth), 5 μM (morphology)
Protocol: FIGS. 1A-E illustrate that the small molecule 968 inhibits cellular transformation. […] Cells were fixed and stained with crystal violet for counting of foci. Right: 968 was serially diluted (10, 5, 2.5, and 1.25 μM) and evaluated for its ability to inhibit focus formation. […] After 6 days, the cells were counted. 100% represents the number of Dbl-transformed cells counted in the absence of 968 (27.5×10^4 cells). Data represent the average of 3 experiments (±s.d.). […] At the indicated times, the cells were counted. Data represent the average of 3 experiments (±s.d.).

Compound: CN(C)c1ccc(C2Nc3ccc4ccccc4c3C3=C2C(=O)CC(C)(C)C3)cc1Br (stereo not drawn) [Compound 968, 5-[3-bromo-4-(dimethylamino)phenyl]-2,2-dimethyl-2,3,5,6-tetrahydrobenzo[a]]
- focus-forming activity [1]: can be blocked
- growth under low serum conditions ([2]; 1% calf serum): blocking their ability
- growth to high density ([2]; 10% calf serum, 6 days): blocking their ability
- basal activity of GACΔC [3]: not further reduced
- phosphorylation state of GAC [4]: significant reduction of at least one phosphorylation state of GAC
- effect on growth or morphology of normal NIH 3T3 cells [5]: no significant effects
